PubChem BioAssay AID330 (DTP/NCI, 2004)
“And” between values parts separate entries of the source, which are not always exact repeats. Equal entries are not always repeated. Toxic doses and inconclusive results are not listed. Rule for the calls: active = survival T/C of 150% or more; inactive = T/C below 125% in these data.

Test system: P388 leukemia ip, CD2F1 mice, survival T/C
Assay: NCI In Vivo Anticancer Drug Screen. Data for tumor model P388 Leukemia (intraperitoneal) in CD2F1 (CDF1) mice
Details: endpoint: median survival time, higher = longer survival
Procedure, shortened: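 Mice carrying the transplanted tumor received test compound or vehicle. Survival was recorded in each group, and the value is the treated-group measurement divided by that of the vehicle-treated control group.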

[1] = dose: 50.0 mg/kg/injection, schedule: Q01DX009 (ip), vehicle: Klucel (hydroxypropylcellulose) (HPC)
[2] = dose: 100.0 mg/kg/injection, schedule: Q01DX009 (ip), vehicle: Klucel (hydroxypropylcellulose) (HPC)
[3] = dose: 200.0 mg/kg/injection, schedule: Q01DX009 (ip), vehicle: Klucel (hydroxypropylcellulose) (HPC)
[4] = dose: 200.0 mg/kg/injection, schedule: Q01DX009 (ip), vehicle: saline
[5] = dose: 60.0 mg/kg/injection, schedule: Q01DX005 (ip), vehicle: saline with Tween-80
[6] = dose: 120.0 mg/kg/injection, schedule: Q01DX005 (ip), vehicle: saline with Tween-80
[7] = dose: 240.0 mg/kg/injection, schedule: Q01DX005 (ip), vehicle: saline with Tween-80
[8] = dose: 100.0 mg/kg/injection, schedule: Q01DX001 (ip), vehicle: saline with Tween-80
[9] = dose: 200.0 mg/kg/injection, schedule: Q01DX001 (ip), vehicle: saline with Tween-80
[10] = dose: 400.0 mg/kg/injection, schedule: Q01DX001 (ip), vehicle: saline with Tween-80
[11] = dose: 50.0 mg/kg/injection, schedule: Q01DX009 (ip), vehicle: saline with Tween-80
[12] = dose: 100.0 mg/kg/injection, schedule: Q01DX009 (ip), vehicle: saline with Tween-80
[13] = dose: 200.0 mg/kg/injection, schedule: Q01DX009 (ip), vehicle: saline with Tween-80
[14] = dose: 60.0 mg/kg/injection, schedule: Q01DX005 (ip), vehicle: Klucel (hydroxypropylcellulose) (HPC)
[15] = dose: 120.0 mg/kg/injection, schedule: Q01DX005 (ip), vehicle: Klucel (hydroxypropylcellulose) (HPC)
[16] = dose: 50.0 mg/kg/injection, schedule: Q01DX005 (ip), vehicle: Klucel (hydroxypropylcellulose) (HPC)
[17] = dose: 100.0 mg/kg/injection, schedule: Q01DX005 (ip), vehicle: Klucel (hydroxypropylcellulose) (HPC)
[18] = dose: 200.0 mg/kg/injection, schedule: Q01DX005 (ip), vehicle: Klucel (hydroxypropylcellulose) (HPC)

Measured: T/C

CP1(C)=NP(C)(C)=NP(C)(C)=NP(C)(C)=N1.[Cl][Pt]([Cl])([Cl])[Cl]
inactive: dose: 6.25 mg/kg/injection, schedule: Q04DX003 (ip), vehicle: saline with Tween-80 106 % of control | dose: 12.5 mg/kg/injection, schedule: Q04DX003 (ip), vehicle: saline with Tween-80 106 % of control and 107 % of control | dose: 25.0 mg/kg/injection, schedule: Q04DX003 (ip), vehicle: saline with Tween-80 110 % of control | dose: 50.0 mg/kg/injection, schedule: Q04DX003 (ip), vehicle: saline with Tween-80 120 % of control and 122 % of control | dose: 100.0 mg/kg/injection, schedule: Q04DX003 (ip), vehicle: saline with Tween-80 118 % of control

COC(=O)[C@@]12OC[C@]34[C@H]([C@@H](O)[C@@H]1O)[C@@]1(C)CC(=O)C(O)=C(C)[C@@H]1C[C@H]3OC(=O)[C@H](OC(=O)CC(C)C)[C@@H]24
inactive: dose: 0.12 mg/kg/injection, schedule: Q01DX009 (ip), vehicle: saline + alcohol 110 % of control | dose: 0.25 mg/kg/injection, schedule: Q01DX009 (ip), vehicle: saline + alcohol 118 % of control

NC(CC(=O)O)C(=O)O (centres undefined)
inactive: [1] 103 % of control and 105 % of control | [2] 105 % of control and 91 % of control | [3] 91 % of control | [4] 100 % of control | dose: 400.0 mg/kg/injection, schedule: Q01DX009 (ip), vehicle: saline 100 % of control | dose: 800.0 mg/kg/injection, schedule: Q01DX009 (ip), vehicle: saline 90 % of control

O=C(NC(O)C(=O)O)c1ccc(Cl)cc1 (centres undefined)
inactive: [5] 97 % of control | [6] 95 % of control | [7] 97 % of control

O=C(N/N=C/c1cc(Br)cc(Br)c1[O-])c1ccccc1.O=C(N/N=C/c1cc(Br)cc(Br)c1[O-])c1ccccc1.[Mn+2]
inactive: [8] 95 % of control | [9] 101 % of control | [10] 98 % of control

C(=Nc1ccccc1)Nc1ccccc1.[Cu+2]
inactive: dose: 6.25 mg/kg/injection, schedule: Q01DX009 (ip), vehicle: saline with Tween-80 100 % of control | dose: 12.5 mg/kg/injection, schedule: Q01DX009 (ip), vehicle: saline with Tween-80 104 % of control and 108 % of control

CCOC(=O)c1cnc2c(c(Br)cc3c4cc(Br)ccc4[nH]c32)c1Cl
inactive: dose: 6.25 mg/kg/injection, schedule: Q01DX009 (ip), vehicle: saline 112 % of control | dose: 12.5 mg/kg/injection, schedule: Q01DX009 (ip), vehicle: saline 107 % of control | dose: 25.0 mg/kg/injection, schedule: Q01DX009 (ip), vehicle: saline 111 % of control | dose: 50.0 mg/kg/injection, schedule: Q01DX009 (ip), vehicle: saline 97 % of control | dose: 100.0 mg/kg/injection, schedule: Q01DX009 (ip), vehicle: saline 91 % of control | [4] 88 % of control

O=P1(c2ccccc2)CCCCN1Cc1ccccc1 (centres undefined)
inactive: dose: 100.0 mg/kg/injection, schedule: Q04DX003 (ip), vehicle: saline 108 % of control | dose: 200.0 mg/kg/injection, schedule: Q04DX003 (ip), vehicle: saline 94 % of control | dose: 400.0 mg/kg/injection, schedule: Q04DX003 (ip), vehicle: saline 116 % of control

Cc1ccc(S(=O)(=O)N(C)C=O)cc1
inactive: [11] 100 % of control | [12] 103 % of control | [13] 101 % of control

CC(/C(=N/O)c1ccccc1)N1C(=O)c2ccccc2C1=O (centres undefined)
inactive: [14] 100 % of control | [15] 99 % of control | dose: 240.0 mg/kg/injection, schedule: Q01DX005 (ip), vehicle: Klucel (hydroxypropylcellulose) (HPC) 96 % of control

Cc1ccc(C)c(CCNC=O)c1
inactive: dose: 25.0 mg/kg/injection, schedule: Q01DX009 (ip), vehicle: saline with Tween-80 100 % of control | [11] 110 % of control | [12] 98 % of control | [13] 103 % of control

c1ccc(-c2cc3nccnc3[nH]2)cc1
inactive: dose: 15.0 mg/kg/injection, schedule: Q01DX005 (ip), vehicle: Klucel (hydroxypropylcellulose) (HPC) 100 % of control | dose: 30.0 mg/kg/injection, schedule: Q01DX005 (ip), vehicle: Klucel (hydroxypropylcellulose) (HPC) 92 % of control | [14] 87 % of control and 89 % of control | [15] 97 % of control

C=C1C(=O)OC2/C=C(\C)C(O)CC(O)C(C)(O)CC(OC(=O)/C(C)=C/C)C12 (centres undefined)
inactive: dose: 10.0 mg/kg/injection, schedule: Q01DX009 (ip), vehicle: saline with Tween-80 102 % of control | dose: 20.0 mg/kg/injection, schedule: Q01DX009 (ip), vehicle: saline with Tween-80 100 % of control and 119 % of control and 97 % of control | dose: 40.0 mg/kg/injection, schedule: Q01DX009 (ip), vehicle: saline with Tween-80 101 % of control and 113 % of control and 123 % of control | dose: 80.0 mg/kg/injection, schedule: Q01DX009 (ip), vehicle: saline with Tween-80 113 % of control and 115 % of control

NC(CC1=CS(=O)(=O)c2ccc(Cl)cc21)C(=O)O (centres undefined)
inactive: dose: 25.0 mg/kg/injection, schedule: Q01DX001 (ip), vehicle: Klucel (hydroxypropylcellulose) (HPC) 99 % of control | dose: 50.0 mg/kg/injection, schedule: Q01DX001 (ip), vehicle: Klucel (hydroxypropylcellulose) (HPC) 96 % of control | dose: 100.0 mg/kg/injection, schedule: Q01DX001 (ip), vehicle: Klucel (hydroxypropylcellulose) (HPC) 101 % of control

NC(=O)c1ccccc1Sc1ccccc1C(N)=O
inactive: [8] 100 % of control | [9] 100 % of control | [10] 100 % of control

Cc1cc(=O)oc2c1ccc1occc(=O)c12
inactive: [5] 96 % of control | [6] 102 % of control | [7] 100 % of control

COc1cc(/C=N/NC(=O)c2ccc(NC(C)=O)cc2)ccc1O
inactive: [16] 90 % of control | [17] 90 % of control | [18] 90 % of control

O=C1CCCC2=C1CC1=C(CCCC1=O)N2
inactive: [16] 94 % of control | [17] 96 % of control | [18] 90 % of control

C=C(C)c1nc2c(=O)nc(N)nc-2n(O)c1C
inactive: dose: 37.5 mg/kg/injection, schedule: Q01DX009 (ip), vehicle: saline with Tween-80 99 % of control | dose: 150.0 mg/kg/injection, schedule: Q01DX009 (ip), vehicle: saline with Tween-80 108 % of control

CC(C)COC(=O)NC(C(=O)N(C(=O)NC1CCCCC1)C1CCCCC1)C(C)C (centres undefined)
inactive: [16] 100 % of control | [17] 95 % of control | [18] 95 % of control

CSc1nc2ccc(N=Cc3ccccc3O)cc2s1
inactive: [1] 91 % of control | [2] 89 % of control | [3] 100 % of control

O=C(O)C(S)Cc1cnc[nH]1 (centres undefined)
inactive: dose: 100.0 mg/kg/injection, schedule: Q04DX002 (ip), vehicle: saline 99 % of control | dose: 200.0 mg/kg/injection, schedule: Q04DX002 (ip), vehicle: saline 99 % of control

COC(=O)c1cn(C(C)=O)c(C)c1C(=O)OC
inactive: [8] 100 % of control | [9] 95 % of control | [10] 104 % of control

Cc1nc2ccc(Cl)cn2c1[N+](=O)[O-]
inactive: [1] 96 % of control | [2] 95 % of control | [3] 96 % of control
